Test systems include DLD-1; DMS-114; DMS-273; HOP-18; KM-20L2; M19-MEL; SNB-78; XF498; RXF 631.
Common to all, as to test: DTP human tumour cell line panel, 48 h

Each structure is given as a SMILES string.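 The compound was tested at five concentrations on cells cultured in 96-well plates, with a 48-hour exposure period. Here, GI50 denotes the concentration required for 50% inhibition of growth.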 Active and inactive are the calls of the source. No stated cut-off is given here; in the data, active = GI50 up to about 1.1 µM and inactive = higher.

Take `CC1(C)OCN(c2ccc(Cl)cc2)Cn2c1nc1ccccc12`: the GI50 in the experiment with DLD-1 is 7.6 µM (inactive); in the experiment on DMS-114, 21.2 µM (inactive); with DMS-273, 1.68 µM (inactive); in the experiment with HOP-18, > 100 µM (inactive); in the experiment on KM-20L2, 1.82 µM (inactive); in the experiment on M19-MEL, 71 µM (inactive). Further, the GI50 in the experiment with SNB-78 is > 100 µM (inactive); with XF498, 82.4 µM (inactive).
`O=C(CC(=O)c1ccccc1)C(=O)NC12CC3CC(CC(C3)C1)C2`: the GI50 with DLD-1 was > 47.5 µM (inactive); in the experiment on DMS-114 it was > 42.4 µM (inactive); with DMS-273 it was > 47 µM (inactive); in the experiment with HOP-18, > 100 µM (inactive); in the experiment with KM-20L2, > 75.7 µM (inactive); in the experiment with M19-MEL it was > 100 µM (inactive). Also, the GI50 in the experiment with SNB-78 and with XF498 was > 100 µM (inactive) each time.
With `COc1ccccc1N1C(=O)C2c3[nH]c4ccccc4c3C3CCC(C(C)(C)C)CC3C2C1=O` (configuration not stated), the GI50 with DLD-1, with DMS-114, with DMS-273, in the experiment with HOP-18, in the experiment on KM-20L2 and in the experiment with M19-MEL was > 100 µM (inactive) in each case. Further, the GI50 in the experiment on SNB-78 and in the experiment on XF498 was > 100 µM (inactive) in each case.
As for `CS(=O)(=O)NNS(=O)(=O)c1ccc(F)cc1`, the GI50 with DLD-1, in the experiment on DMS-114, in the experiment on DMS-273, in the experiment with KM-20L2, with M19-MEL and in the experiment on RXF 631 was > 100 µM (inactive) throughout.
With `O=C(CC(=O)N1N=C(n2ccc3ccccc32)CC1c1ccccc1)Nc1cccc(Cl)c1` (configuration not stated), the GI50 with DLD-1, in the experiment on DMS-273, in the experiment with HOP-18, with KM-20L2, with M19-MEL and with RXF 631 was > 100 µM (inactive) in each case. For the same molecule, the GI50 in the experiment with SNB-78 was > 100 µM (inactive).
In the case of `COC(=N)/C(=C1\OC(=N)C(c2ccc(Cl)cc2)=C1O)c1ccc(Cl)cc1`, the GI50 in the experiment on DLD-1, with DMS-114, in the experiment on DMS-273, in the experiment on HOP-18, in the experiment on KM-20L2 and with M19-MEL was > 100 µM (inactive) throughout. Also, the GI50 in the experiment with SNB-78 and with XF498 was > 100 µM (inactive) in each case.
In the case of `N#CCCN(c1ccc(/C=N/c2nc(-c3ccccc3)cs2)cc1)S(=O)(=O)c1ccccc1`, the GI50 was 96.8 µM (inactive) with DLD-1; 39.4 µM (inactive) in the experiment with DMS-114; > 100 µM (inactive) with DMS-273; > 100 µM (inactive) in the experiment on KM-20L2; > 100 µM (inactive) in the experiment with M19-MEL; > 100 µM (inactive) in the experiment on SNB-78. Also, the GI50 with XF498 is > 100 µM (inactive).
Take `COc1ccc(OC)c(NC(=O)C2=C(C)NC(C)=C(C(=O)Nc3cc(OC)ccc3OC)C2c2ccccc2)c1`: the GI50 with DLD-1 is 21.7 µM (inactive); with DMS-114, 96.2 µM (inactive); with DMS-273, > 100 µM (inactive); in the experiment on HOP-18 it was 1.04 µM (active); with KM-20L2 it was 86.5 µM (inactive); in the experiment on M19-MEL, > 100 µM (inactive). In the experiment with SNB-78, the GI50 is > 100 µM (inactive).
Take `CCOc1cc2c(C(=O)CC)c(O)ccc2o1`: the GI50 in the experiment on DMS-114 was > 54.5 µM (inactive); in the experiment with DMS-273, > 100 µM (inactive); in the experiment with KM-20L2 it was > 100 µM (inactive); in the experiment with M19-MEL it was 31.1 µM (inactive); with SNB-78, > 96.6 µM (inactive); in the experiment on XF498 it was > 49.9 µM (inactive).
For `CC(=O)/C(=C\c1ccccc1)C(=O)Nc1ccccc1`, the GI50 with DLD-1, in the experiment on DMS-114, in the experiment with HOP-18, in the experiment with M19-MEL, in the experiment on RXF 631 and with SNB-78 was > 100 µM (inactive) each time. Besides, the GI50 with XF498 was > 100 µM (inactive).
In the case of `Cc1cccc(N2C(=O)C(Cl)=C(Cl)C2=O)c1`, the GI50 in the experiment with DLD-1 is > 43 µM (inactive); in the experiment with DMS-114, > 67.5 µM (inactive); in the experiment on DMS-273, > 100 µM (inactive); in the experiment on HOP-18 it was > 73.6 µM (inactive); in the experiment on KM-20L2, > 100 µM (inactive); in the experiment with M19-MEL, > 91.2 µM (inactive). The GI50 is > 100 µM (inactive) in the experiment on SNB-78 and 0.661 µM (active) with XF498.
For the molecule `Cc1cc(C)nc(NS(=O)(=O)c2ccc(Nc3c4ccc(Cl)cc4nc4c(C(=O)Nc5ccc(S(N)(=O)=O)cc5)cccc34)cc2)n1`, the GI50 is 13.8 µM (inactive) with DLD-1; 22.8 µM (inactive) with DMS-114; 18.6 µM (inactive) in the experiment on KM-20L2; 25.4 µM (inactive) with M19-MEL; 18.2 µM (inactive) with RXF 631; 49.9 µM (inactive) in the experiment with SNB-78. Besides, the GI50 with XF498 is 18.4 µM (inactive).
As to `COc1cc2c[n+](C)c3c4cc5c(cc4ccc3c2cc1OC)OCO5` [NITIDINE CHLORIDE], the GI50 in the experiment on DLD-1 was 14.9 µM (inactive); with DMS-114 it was 1.24 µM (inactive); with DMS-273, 0.745 µM (active); in the experiment with HOP-18 it was 19.5 µM (inactive); with KM-20L2, 0.608 µM (active); with M19-MEL, 1.27 µM (inactive). For the same molecule, the GI50 in the experiment with RXF 631 is 19.8 µM (inactive); in the experiment on SNB-78 it was 3.37 µM (inactive); with XF498, 2.66 µM (inactive).
In the case of `O=C(NN1C(=O)C(Cl)C1c1cccc(Cl)c1)c1ccccc1O` (configuration not stated), the GI50 in the experiment on DMS-273 was > 100 µM (inactive); in the experiment on HOP-18, 0.167 µM (active); with M19-MEL, > 100 µM (inactive); in the experiment with SNB-78, > 100 µM (inactive); in the experiment with XF498, 15.3 µM (inactive).
With `CC1=C(C(=O)CC(=O)C(=O)Nc2cccc(C)c2C)Sc2ccccc2N1`, the GI50 with DLD-1, in the experiment on DMS-114, with HOP-18, in the experiment with M19-MEL and with SNB-78 was > 100 µM (inactive) throughout.
Take `CCCC(C(=O)OC)C1N/C(=N/C#N)N(Cc2ccccc2)C1=O` (configuration not stated): the GI50 with DLD-1, with DMS-114, in the experiment on DMS-273, in the experiment with KM-20L2, in the experiment with M19-MEL and in the experiment with XF498 was > 100 µM (inactive) in each case.
For `CCN(CC)CCC1(C2CCCCC2)CCC(=O)NC1=O` (configuration not stated), the GI50 in the experiment on DLD-1, in the experiment on DMS-114, in the experiment with DMS-273, with KM-20L2, with M19-MEL and in the experiment with RXF 631 was > 100 µM (inactive) throughout. Moreover, the GI50 in the experiment with SNB-78 and in the experiment with XF498 was > 100 µM (inactive) throughout.
Regarding `OCc1ccc(-c2ccc(-c3ccc(CO)s3)o2)s1`, the GI50 in the experiment with DLD-1 was 6.05 µM (inactive); with DMS-114, 13.4 µM (inactive); with DMS-273 it was 1.13 µM (inactive); in the experiment with HOP-18, 0.341 µM (active); in the experiment with KM-20L2 it was 0.0405 µM (active); in the experiment with M19-MEL, 41.7 µM (inactive). The GI50 with XF498 was 0.0562 µM (active).
`COc1ccc(C2NC(c3ccc(OC)cc3)C(C)C(=O)C2C)cc1` (configuration not stated): the GI50 with DLD-1 is > 100 µM (inactive); in the experiment on DMS-114, 64.4 µM (inactive); in the experiment with DMS-273 it was > 100 µM (inactive); in the experiment with HOP-18, > 100 µM (inactive); in the experiment with KM-20L2, > 100 µM (inactive); in the experiment with M19-MEL, > 100 µM (inactive). For the same molecule, the GI50 in the experiment with RXF 631 and with SNB-78 was > 100 µM (inactive) each time.
In the case of `COC(=O)C1[C@H](c2cc(OC)c(OC)c(OC)c2)OC(=O)C1(C(=O)OC)C(=O)c1ccc2c(c1)OCO2` (some centres not stated), the GI50 in the experiment with DLD-1, with DMS-114, in the experiment with DMS-273, in the experiment on KM-20L2, in the experiment with M19-MEL and in the experiment with SNB-78 was > 100 µM (inactive) in each case. Besides, the GI50 with XF498 is > 100 µM (inactive).
Turning to `Cc1c(N)nc(C(CC(N)=O)NCC(N)C(N)=O)nc1C(=O)NC(C(=O)NC(C)C(O)C(C)C(=O)NC(C(=O)NCCc1nc(-c2nc(C(=O)NCCCNC(C)c3ccccc3)cs2)cs1)C(C)O)C(OC1OC(CO)C(O)C(O)C1OC1OC(CO)C(O)C(OC(N)=O)C1O)c1c[nH]cn1` (configuration not stated), the GI50 was 32.8 µM (inactive) in the experiment on DLD-1; 0.59 µM (active) with DMS-114; 0.0752 µM (active) in the experiment on DMS-273; 21.3 µM (inactive) with HOP-18; 40.4 µM (inactive) with KM-20L2; 15 µM (inactive) in the experiment on M19-MEL. Further, the GI50 was > 50 µM (inactive) in the experiment on SNB-78 and 0.973 µM (active) in the experiment on XF498.
As to `Oc1cc(O)c(Oc2cccc(O)c2O)c(O)c1`, the GI50 in the experiment on DMS-114 was 57.7 µM (inactive); in the experiment on DMS-273, > 100 µM (inactive); with HOP-18, > 100 µM (inactive); in the experiment with M19-MEL it was 21.1 µM (inactive); in the experiment with RXF 631, > 100 µM (inactive); in the experiment with SNB-78, > 100 µM (inactive). Moreover, the GI50 in the experiment on XF498 was 29.5 µM (inactive).
For the molecule `COc1ccc2c(c1)[n+]([O-])c(-c1ccc(Cl)c(Cl)c1)c(N)[n+]2[O-]`, the GI50 with DLD-1 was 33.9 µM (inactive); with DMS-114, 16.3 µM (inactive); in the experiment with DMS-273, 23.8 µM (inactive); in the experiment on HOP-18 it was 24.3 µM (inactive); in the experiment on KM-20L2 it was 32.3 µM (inactive); with M19-MEL it was 28.8 µM (inactive). The GI50 with RXF 631 is 21.3 µM (inactive); in the experiment on SNB-78 it was 53.6 µM (inactive).
As to `O=C1C=CC(=O)c2c(O)ccc(O)c21` [NAPHTHAZALIN], the GI50 with DLD-1 was 0.326 µM (active); with DMS-114 it was 1.8 µM (inactive); in the experiment with DMS-273, 3.17 µM (inactive); with HOP-18 it was 1.16 µM (inactive); in the experiment on KM-20L2, 1.84 µM (inactive); in the experiment with M19-MEL, 0.491 µM (active). Further, the GI50 with SNB-78 is 2.25 µM (inactive); in the experiment on XF498, 1.58 µM (inactive).
In the case of `CCSc1nc2n(c(=S)n1)CCN2C`, the GI50 is 18.7 µM (inactive) with DMS-114, 18.1 µM (inactive) in the experiment on DMS-273, 20 µM (inactive) in the experiment on KM-20L2 and 13.5 µM (inactive) in the experiment with M19-MEL.
